Source: patent publication US20150258059A1, “ANTIMICROBIAL AND RADIOPROTECTIVE COMPOUNDS” (BioDiem, Ltd, priority 2001, published 2015)

These molecules were tested on Enterobacter aerogenes B-687 (assay: Sensitivity of strains: suppression of growth). Details: Compound (1) 1.0%; antibiotics disc method.
Type: cell-based
For `O=C(N[C@H](CO)[C@H](O)c1ccc([N+](=O)[O-])cc1)C(Cl)Cl` [Antibiotic 7, levomicethin], the “Suppression of Growth (+/−)” value was “−”.

Each molecule was assayed on Escherichia coli M-17 (assay: Sensitivity of strains: suppression of growth). Details: Compound (1) 1.0%; antibiotics disc method.
Type: cell-based
`O=C(N[C@H](CO)[C@H](O)c1ccc([N+](=O)[O-])cc1)C(Cl)Cl` [Antibiotic 7, levomicethin] was tested, and the “Suppression of Growth (+/−)” value was “+”.

Each molecule was assayed on Klebsiella pneumoniae M-248 (assay: Sensitivity of strains: suppression of growth). Details: Compound (1) 1.0%; antibiotics disc method.
Type: cell-based
In the case of `O=C(N[C@H](CO)[C@H](O)c1ccc([N+](=O)[O-])cc1)C(Cl)Cl` [Antibiotic 7, levomicethin], the “Suppression of Growth (+/−)” value is reported as “−”.

Each molecule was assayed on Bacillus sp. B-575 (assay: Sensitivity of strains: suppression of growth). Details: not given.
Type: cell-based
With `O=C(N[C@H](CO)[C@H](O)c1ccc([N+](=O)[O-])cc1)C(Cl)Cl` [Antibiotic 7, levomicethin] the “Suppression of Growth (+/−)” value was “+”.

The molecules below were run on γ-hemolytic streptococcus B-672 (assay: Sensitivity of strains: suppression of growth). Details: Compound (1) 1.0%; antibiotics disc method.
Type: cell-based
For `O=C(N[C@H](CO)[C@H](O)c1ccc([N+](=O)[O-])cc1)C(Cl)Cl` [Antibiotic 7, levomicethin], the “Suppression of Growth (+/−)” value was “−”.

The molecules below were run on Acinetobacter B-676 (assay: Sensitivity of strains: suppression of growth). Details: Compound (1) 1.0%; antibiotics disc method.
Type: cell-based
For `O=C(N[C@H](CO)[C@H](O)c1ccc([N+](=O)[O-])cc1)C(Cl)Cl` [Antibiotic 7, levomicethin], the “Suppression of Growth (+/−)” value was “−”.

These molecules were tested on Citrobacter diversus B-678 (assay: Sensitivity of strains: suppression of growth). Details: Compound (1) 1.0%; antibiotics disc method.
Type: cell-based
With `O=C(N[C@H](CO)[C@H](O)c1ccc([N+](=O)[O-])cc1)C(Cl)Cl` [Antibiotic 7, levomicethin] the “Suppression of Growth (+/−)” value was “−”.

The molecules below were run on Acinetobacter B-677 (assay: Sensitivity of strains: suppression of growth). Details: Compound (1) 1.0%; antibiotics disc method.
Type: cell-based
For `O=C(N[C@H](CO)[C@H](O)c1ccc([N+](=O)[O-])cc1)C(Cl)Cl` [Antibiotic 7, levomicethin], the “Suppression of Growth (+/−)” value was “−”.

The molecules below were run on Staphylococci epidermidis D-513 (assay: Sensitivity of strains: suppression of growth). Details: Compound (1) 1.0%; antibiotics disc method.
Type: cell-based
In the case of `O=C(N[C@H](CO)[C@H](O)c1ccc([N+](=O)[O-])cc1)C(Cl)Cl` [Antibiotic 7, levomicethin], the “Suppression of Growth (+/−)” value is reported as “−”.

These molecules were tested on Salmonella typhimurium M-727 (assay: Sensitivity of strains: suppression of growth). Details: Compound (1) 1.0%; antibiotics disc method.
Type: cell-based
In the case of `O=C(N[C@H](CO)[C@H](O)c1ccc([N+](=O)[O-])cc1)C(Cl)Cl` [Antibiotic 7, levomicethin], the “Suppression of Growth (+/−)” value is reported as “−”.

The molecules below were run on Enterobacter aerogenes B-679 (assay: Sensitivity of strains: suppression of growth). Details: Compound (1) 1.0%; antibiotics disc method.
Type: cell-based
With `O=C(N[C@H](CO)[C@H](O)c1ccc([N+](=O)[O-])cc1)C(Cl)Cl` [Antibiotic 7, levomicethin] the “Suppression of Growth (+/−)” value was “−”.

These molecules were tested on Staphylococcus aureus M-12159 (assay: Sensitivity of strains: suppression of growth). Details: Compound (1) 1.0%; antibiotics disc method.
Type: cell-based
For `O=C(N[C@H](CO)[C@H](O)c1ccc([N+](=O)[O-])cc1)C(Cl)Cl` [Antibiotic 7, levomicethin], the “Suppression of Growth (+/−)” value was “−”.

What follows are molecules tested on Staphylococcus aureus M-209 (assay: Sensitivity of strains: suppression of growth). Details: Compound (1) 1.0%; antibiotics disc method.
Type: cell-based
With `O=C(N[C@H](CO)[C@H](O)c1ccc([N+](=O)[O-])cc1)C(Cl)Cl` [Antibiotic 7, levomicethin] the “Suppression of Growth (+/−)” value was “−”.

Each molecule was assayed on Neisseria meningitidis M-6231 (assay: Sensitivity of strains: suppression of growth). Details: Compound (1) 1.0%; antibiotics disc method.
Type: cell-based
`O=C(N[C@H](CO)[C@H](O)c1ccc([N+](=O)[O-])cc1)C(Cl)Cl` [Antibiotic 7, levomicethin] was tested, and the “Suppression of Growth (+/−)” value was “−”.

The molecules below were run on Alkaligenes sp. B-667 (assay: Sensitivity of strains: suppression of growth). Details: Compound (1) 1.0%; antibiotics disc method.
Type: cell-based
`O=C(N[C@H](CO)[C@H](O)c1ccc([N+](=O)[O-])cc1)C(Cl)Cl` [Antibiotic 7, levomicethin] was tested, and the “Suppression of Growth (+/−)” value was “−”.

Each molecule was assayed on Shigella flexneri M-2A6907 (assay: Sensitivity of strains: suppression of growth). Details: Compound (1) 1.0%; antibiotics disc method.
Type: cell-based
In the case of `O=C(N[C@H](CO)[C@H](O)c1ccc([N+](=O)[O-])cc1)C(Cl)Cl` [Antibiotic 7, levomicethin], the “Suppression of Growth (+/−)” value is reported as “+”.

The molecules below were run on Conditional pathogenic enterobacteria gram-negative aerobic bacilli (assay: not given). Details: not given.
Type: cell-based
For `O=C(N[C@H](CO)[C@H](O)c1ccc([N+](=O)[O-])cc1)C(Cl)Cl` [Antibiotic 7, levomicethin], the “Suppression of Growth (+/−)” value was “−”.

These molecules were tested on β-hemolytic streptococcus B-624 (assay: Sensitivity of strains: suppression of growth). Details: Compound (1) 1.0%; antibiotics disc method.
Type: cell-based
With `O=C(N[C@H](CO)[C@H](O)c1ccc([N+](=O)[O-])cc1)C(Cl)Cl` [Antibiotic 7, levomicethin] the “Suppression of Growth (+/−)” value was “−”.

What follows are molecules tested on Alkaligenes sp. B-689 (assay: Sensitivity of strains: suppression of growth). Details: Compound (1) 1.0%; antibiotics disc method.
Type: cell-based
`O=C(N[C@H](CO)[C@H](O)c1ccc([N+](=O)[O-])cc1)C(Cl)Cl` [Antibiotic 7, levomicethin] was tested, and the “Suppression of Growth (+/−)” value was “+”.

What follows are molecules tested on Escherichia coli B-65 (assay: Sensitivity of strains: suppression of growth). Details: Compound (1) 1.0%; antibiotics disc method.
Type: cell-based
With `O=C(N[C@H](CO)[C@H](O)c1ccc([N+](=O)[O-])cc1)C(Cl)Cl` [Antibiotic 7, levomicethin] the “Suppression of Growth (+/−)” value was “+”.

What follows are molecules tested on Neisseria meningitidis M-A72 (assay: Sensitivity of strains: suppression of growth). Details: Compound (1) 1.0%; antibiotics disc method.
Type: cell-based
`O=C(N[C@H](CO)[C@H](O)c1ccc([N+](=O)[O-])cc1)C(Cl)Cl` [Antibiotic 7, levomicethin] was tested, and the “Suppression of Growth (+/−)” value was “−”.

What follows are molecules tested on Pseudomonas aeruginosa B-601 (assay: Sensitivity of strains: suppression of growth). Details: Compound (1) 1.0%; antibiotics disc method.
Type: cell-based
In the case of `O=C(N[C@H](CO)[C@H](O)c1ccc([N+](=O)[O-])cc1)C(Cl)Cl` [Antibiotic 7, levomicethin], the “Suppression of Growth (+/−)” value is reported as “+”.

What follows are molecules tested on Yersinia pseudotuberculosis (assay: not given). Details: Compound (1) 1.0%; antibiotics disc method.
Type: cell-based
In the case of `O=C(N[C@H](CO)[C@H](O)c1ccc([N+](=O)[O-])cc1)C(Cl)Cl` [Antibiotic 7, levomicethin], the “Suppression of Growth (+/−)” value is reported as “−”.

What follows are molecules tested on Staphylococcus aureus B-674 (assay: Sensitivity of strains: suppression of growth). Details: Compound (1) 1.0%; antibiotics disc method.
Type: cell-based
In the case of `O=C(N[C@H](CO)[C@H](O)c1ccc([N+](=O)[O-])cc1)C(Cl)Cl` [Antibiotic 7, levomicethin], the “Suppression of Growth (+/−)” value is reported as “+”.

Each molecule was assayed on Acinetobacter B-681 (assay: Sensitivity of strains: suppression of growth). Details: Compound (1) 1.0%; antibiotics disc method.
Type: cell-based
With `O=C(N[C@H](CO)[C@H](O)c1ccc([N+](=O)[O-])cc1)C(Cl)Cl` [Antibiotic 7, levomicethin] the “Suppression of Growth (+/−)” value was “−”.

These molecules were tested on Klebsiella pneumoniae M-A21 (assay: Sensitivity of strains: suppression of growth). Details: Compound (1) 1.0%; antibiotics disc method.
Type: cell-based
For `O=C(N[C@H](CO)[C@H](O)c1ccc([N+](=O)[O-])cc1)C(Cl)Cl` [Antibiotic 7, levomicethin], the “Suppression of Growth (+/−)” value was “−”.

These molecules were tested on Staphylococcus aureus B-685 (assay: Sensitivity of strains: suppression of growth). Details: Compound (1) 1.0%; antibiotics disc method.
Type: cell-based
`O=C(N[C@H](CO)[C@H](O)c1ccc([N+](=O)[O-])cc1)C(Cl)Cl` [Antibiotic 7, levomicethin] was tested, and the “Suppression of Growth (+/−)” value was “−”.

Each molecule was assayed on Staphylococcus epidermidis BK-30 (assay: Sensitivity of strains: suppression of growth). Details: Compound (1) 1.0%; antibiotics disc method.
Type: cell-based
For `O=C(N[C@H](CO)[C@H](O)c1ccc([N+](=O)[O-])cc1)C(Cl)Cl` [Antibiotic 7, levomicethin], the “Suppression of Growth (+/−)” value was “−”.

Each molecule was assayed on Escherichia coli B-683 (assay: Sensitivity of strains: suppression of growth). Details: Compound (1) 1.0%; antibiotics disc method.
Type: cell-based
With `O=C(N[C@H](CO)[C@H](O)c1ccc([N+](=O)[O-])cc1)C(Cl)Cl` [Antibiotic 7, levomicethin] the “Suppression of Growth (+/−)” value was “+”.
